From publication PMC4230943, “Mimicking Hypoxia to Treat Anemia: HIF-Stabilizer BAY 85-3934 (Molidustat) Stimulates Erythropoietin Production without Hypertensive Effects” (PLoS ONE, 2014)

Experiments:
[1] = tested on: cynomolgus monkeys; experiment: 5-day repeat-dose study of plasma EPO response; format: in vivo, cynomolgus monkey
Description: Male and female cynomolgus monkeys (2.8–5.6 kg in body weight) were used, which were housed two per cage. Blood samples from conscious cynomolgus monkeys were taken by puncturing a superficial vein. In a 5-day, repeat-dose study of plasma EPO response, BAY 85-3934 was administered at doses of 0.5 mg/kg and 1.5 mg/kg at 0 h, 24 h, 48 h, 72 h, and 96 h. Blood samples were taken at 7 h, 31 h, 55 h, 79 h, 103 h, and 168 h. Erythropoietic parameters were also evaluated after a 2-week treatment period with s.c. administration of rhEPO (100 IU/kg twice weekly at days 1, 4, 8, and 11) and BAY 85-3934 (1.5 mg/kg) once daily.
EPO was measured in plasma samples taken from rodents using a commercial ELISA kit (R&D Systems), according to the manufacturer’s instructions. Relative plasma EPO levels were given in picograms per milliliter. In cynomolgus monkeys, EPO was measured using a combination anti-human EPO ELISAs (R&D Systems and Roche Diagnostics), with human EPO as a standard. Values were given as units per liter. For determination of plasma prorenin from rats, a commercial ELISA (Oxford Biomedical Research) was used according to the manufacturer’s instructions. Hemoglobin in rodent blood samples was determined on a Cell-Dyn 3700 apparatus (Abbott Diagnostics). BAY 85-3934 plasma concentrations were determined after protein precipitation with acetonitrile/ammonium acetate using an internal standard, followed by separation using HPLC/mass spectrometry.
A multiple-dose study in cynomolgus monkeys was conducted to evaluate whether repeat administration of BAY 85-3934 would result in EPO accumulation and/or adaptation of the EPO response. […] In all groups, EPO concentrations had returned to baseline concentrations 24 h after administration of the study drug. […] Platelet and white blood cell counts were unchanged. With respect to EPO induction, the 0.5 mg/kg dose was determined as the minimal effective dose in this study, although statistical significance versus control animals was not reached in this small and heterogeneous animal cohort.

[2] = tested on: male Wistar rats; experiment: Subtotal nephrectomy (remnant kidney) model; format: in vivo, rat; settings: same dose for 3 days, data not shown
[3] = tested on: female Lewis rats; experiment: PG-PS-induced inflammatory anemia model; format: in vivo, rat
Description: Female Lewis rats (Harlan Laboratories), with a body weight of 155–181 g were used. Body weight, ankle diameter, hematocrit, and blood cell count were determined at baseline and thereafter at regular intervals. PG-PS from Streptococcus pyogenes (Becton Dickinson) was dissolved in sterile saline and administered via i.p. injection at 15 mg/kg. […] Two weeks after injection, animals were distributed into treatment groups in equal proportions based on their hematocrit levels. On day 15, BAY 85-3934 was given orally once daily at doses of 2.5 mg/kg and 5.0 mg/kg. At the end of the study, animals were sacrificed and kidney and liver samples were processed for qRT-PCR analysis.
Total RNA was extracted from shock-frozen cell or tissue samples using the TRIzol method. Integrity of obtained RNA was checked on a Bioanalyzer (Agilent Technologies). For reverse transcription, 1 µg of total RNA was digested with RNase-free DNase I (Gibco) for 15 min at room temperature, and then reverse-transcribed using Promiscript (Promega GmbH) in a total reaction volume of 40 µl according to the standard protocol of the supplier. After inactivation of the enzyme by heating to 65°C for 15 min, the obtained cDNA was diluted to a final volume of 150 µl with double-distilled water, and 4 µl used per PCR reaction. qRT-PCR, including normalization of raw data to cytosolic β-actin, was carried out as described previously. The resulting expression is given in arbitrary units.
Renal anemia, particularly in patients with ESRD on dialysis, is often associated with systemic inflammation and EPO resistance. The potential for BAY 85-3934 to reverse anemia was evaluated in a rodent model of protracted inflammatory anemia associated with chronic polyarthritis, induced by challenge with PG-PS [38]. The severity of the inflammatory response after PG-PS challenge was underscored by the finding that there was elevated expression of a panel of cytokines and inflammatory marker genes, several of which are known to disturb iron utilization (interleukin-1, interleukin-6, tumor necrosis factor-α, and hepcidin) and to impair proliferation and differentiation of erythroid precursors (interleukin-1 and tumor necrosis factor-α).

[4] = tested on: broad panel of radio-ligand binding assays; experiment: Broad panel of radio-ligand binding assays (n = 67); settings: 10 µM, n = 67 assays, data not shown
Description: The selectivity of BAY 85-3934 was examined via a broad panel of radio-ligand binding assays (n = 67), and by examining the activity of BAY 85-3934 against related enzymes (matrix metalloproteinases and other peptidases, n = 8). At a concentration of 10 µM, no significant (> 50%) activity in any of these assays was detected (data not shown).

## O=c1c(-n2ccnn2)c[nH]n1-c1cc(N2CCOCC2)ncn1 [BAY 85-3934, 2-[6-(morpholin-4-yl)pyrimidin-4-yl]-4-(1H-1,2,3-triazol-1-yl)-1,2-dihydro-3H-pyrazol-3-one]
[1]; 1.5 mg/kg oral, all animals
  plasma EPO 7 h after administration: significantly induced
[1]; 0.5 and 1.5 mg/kg, all groups
  time after administration at which EPO had returned to baseline: 24 h
[1]; once daily for 5 days
  adaptation of the EPO response after repeated dosing: no adaptation
  platelet and white blood cell counts: unchanged
[1]; statistical significance versus control not reached
  minimal effective dose for EPO induction: 0.5 mg/kg
[2]
  blood pressure in normotensive rats: did not affect blood pressure
[3]; 2.5 mg/kg once daily oral
  mean PCV: halted further decline
[3]; 5 mg/kg dose group
  expression levels of monocyte chemotactic protein-1 and hepcidin: significantly reduced
[3]; 5 mg/kg once daily oral
  mean PCV: reversed mean PCV decline
  time after PG-PS challenge for PCV to return to normal levels: ≤ 5 weeks
[3]; data not shown
  initial increase in white blood cell count: attenuated
[3]; end of study
  kidney EPO mRNA expression: significantly larger increase
[3]; rat, in vivo
  course of polyarthritis (hind limb ankle diameter, body weight gain): did not influence
[4]
  activity in radio-ligand binding assays: ≤ 50%
